In general, melting point refers to the temperature, or range, at which the solid turns liquid.

61 molecules from a melting point compilation (Tetko et al.; mined from patent text by program, amines drawn as free bases though some values may be those of a salt) can be followed below.

Consider `C=CCc1c(OC)ccc(-c2cc(-c3ccc(Cl)cc3)n(-c3ccc(OC)cc3)n2)c1OC`, for which the melting point lay within 44 to 46 °C.

`Cc1ccc(COc2cccc(C(=O)Nc3ccc(CN4CCCCC4)cc3)c2)cc1` had a melting point of 153 to 155 °C.

The molecule `O=C(O)c1cn(-c2csnn2)c2cc(F)c(F)cc2c1=O` came in with a melting point of 239 to 244 °C.

On to `COc1c(Cl)ccc(-c2cc(N)c(Cl)c(C(=O)NOCC3CC3)n2)c1F`, for which the melting point lay in the range of 164 to 166 °C.

Turning to `Cc1cccc(C)c1CNc1cc(S(=O)(=O)N(C)C)cc2c1nc(C)n2C`, the melting point lay within 237 to 238 °C.

`O=C(N[C@@H]1CCc2cccc(N3CCNCC3)c2C1)c1ccc(N2CCOCC2)cc1` yielded a melting point of 202 to 203 °C.

Molecule `CCOC(=O)Cn1c(C(=O)OCc2ccccc2)cc2cc(F)ccc21` displayed a melting point of 75 to 76 °C.

Take `Cc1cccc(N(c2cccc(C)c2)c2c(N(c3cccc(C)c3)c3cccc(C)c3)c3ccccc3c3ccccc23)c1`: the melting point lay in the range of 223 to 224 °C.

`CC1(C)C2CCC1(CS(=O)(=O)NCCC1CCc3ccccc31)C(=O)C2` (stereo unspecified) came in with a melting point of 52 to 70 °C.

`CS(=O)(=O)Nc1ccc(CCCC(=O)OCc2ccccc2)cc1` registered a melting point of 88 to 89 °C.

`O=C1NC(=O)C2(CCOc3ccc(F)cc32)N1` (stereo unspecified) returned a melting point of 239 to 241 °C.

Turning to `CC1(C2CCCC2)Cc2cc(NCC(=O)O)c(Cl)c(Cl)c2C1=O` (stereo unspecified), the melting point is 199 to 200 °C.

As for `COc1cc(OC)c(-c2cc3ccccc3s2)cc1/C=C/C(=O)c1ccc(C(=O)NC(=O)C(C)C)cc1`, the melting point lay within 208 to 209 °C.

The molecule `COC(=O)COc1c2c(cc3c1c1c(C(N)=O)cccc1n3Cc1ccccc1)CCCC2` displayed a melting point of 174 to 177 °C.

The molecule `CN1CC(C(=O)c2cccn2Cc2ccc(F)cc2)=C(O)C1=O` registered a melting point of 150 to 151 °C.

The molecule `COc1cc(OC)c2c(=O)c3oc4ccccc4c3oc2c1` yielded a melting point of 261 to 263 °C.

For the molecule `CNc1cc(OC)c(C(=O)NC2CCN(Cc3ccccc3)C2)cc1Cl` (stereo unspecified), the melting point is 101 to 102 °C.

With `COC(=O)c1nc(Cl)nc(N)c1Cl`, the melting point was in the range of 164 to 166 °C.

`CCN(CC)c1ccc(C=C2CCCC(=Cc3ccc(N(CC)CC)cc3)C2=O)cc1` displayed a melting point of 167 °C.

Turning to `O=C1CN=C(c2ccccc2Cl)c2ccccc2N1`, the melting point was in the range of 109 to 111 °C.

Molecule `CS(=O)(=O)c1ccc(-c2sc(COc3cccc(Cl)c3)nc2-c2ccccc2F)cc1` gave a melting point of 152 to 153 °C.

The molecule `COc1ccc(-c2cc(=O)n(Cc3ccc(Cl)c(Cl)c3)nc2-c2ccc(OC)cc2)cc1` had a melting point of 108 to 110 °C.

For `CCOC(=O)CCCn1c(C(=O)C2CCN(CCC3(c4ccc(Cl)c(Cl)c4)CCN(C(=O)c4cc(OC)c(OC)c(OC)c4)C3)CC2)nc2ccccc21` (stereo unspecified), the melting point lay within 58 to 65 °C.

For the molecule `NC(=NCC(F)(F)F)Nc1ccnc(CCCCc2c[nH]cn2)n1`, the melting point fell in the range of 191 to 193 °C.

Turning to `CC(C)(N)Cc1c[nH]c2ccccc12`, the melting point lay in the range of 72 to 74 °C.

For `CC(=O)c1ccc2c(c1)C(c1ccccc1F)=NC(C)(C)C(=O)N2`, the melting point was found to be 59 °C.

Consider `Cc1cc(F)ccc1-c1cccc(C(=O)Nc2ccc(OCCN3CCOCC3)c3ccccc23)c1`, for which the melting point is 95 to 97 °C.

Molecule `CC(C)(Oc1cccc2ccccc12)C(=O)Nc1ccc(C(=O)O)cc1` yielded a melting point of 155 °C.

For the molecule `CCc1c(C)noc1NS(=O)(=O)c1cccc2c(N(C)C)cccc12`, the melting point was 55 to 85 °C.

`CCOC(=O)OC1C(=O)N(CCN(C)C)c2ccc3ccccc3c2SC1c1ccc(OC)cc1` (stereo unspecified) yielded a melting point of 168 to 169 °C.

For the molecule `O=c1[nH]c2c([nH]c1=O)C(N1CCOCC1)c1ccccc1-2` (stereo unspecified), the melting point lay within 265 to 267 °C.

In the case of `Oc1ccc(OCc2ccccc2)cc1OCc1ccccc1`, the melting point was in the range of 82 to 83 °C.

The molecule `CC(=O)N[C@@H]1CCCC[C@H]1OCC(=O)O` (relative stereo) yielded a melting point of 141 to 143 °C.

The molecule `Cc1ccc(S(=O)(=O)Nc2nc(-c3ccc(Cl)c(Cl)c3)cs2)cc1` came in with a melting point of 205 to 206 °C.

`COc1cc2c(cc1OC(C)C)C(=O)C1c3c(cc(OC(C)C)c(OC)c3-2)CCN1C` (stereo unspecified) registered a melting point of 82 to 84 °C.

With `CSc1nncc(C(C)(C)C)n1`, the melting point was in the range of 91 to 93 °C.

In turn, `COCCNC(=O)Nc1nc2cc(OS(=O)(=O)c3c(C)cc(C)cc3C)ccc2[nH]1` returned a melting point of 140 °C.

Regarding `NC(=O)c1cccc2c1nc(-c1c(F)cccc1F)n2Cc1c(F)cccc1F`, the melting point was in the range of 260 to 261 °C.

For `O=C(Nc1cc(-c2cccc(C(F)(F)F)c2)no1)c1c(F)cccc1F`, the melting point is 123 to 126 °C.

For the molecule `COc1ccc(C(O)(CN)Cc2ccccc2N)cc1OC` (stereo unspecified), the melting point lay within 131 to 133 °C.

`CC(C)(C)OC(=O)N(C[C@H](O)COc1ccc(OCc2ccccc2)cc1)C1CN(C(c2ccccc2)c2ccccc2)C1` showed a melting point of 95 to 96 °C.

In turn, `CCN1C(=O)C(F)N=C(c2ccccc2)c2cc(Cl)ccc21` (stereo unspecified) displayed a melting point of 156 to 158 °C.

As for `CC(=O)SCC(Cc1ccc(N(C)C)cc1)C(=O)Nc1cccc(C(=O)O)c1` (stereo unspecified), the melting point fell in the range of 71 to 73 °C.

In turn, `CC(C)Oc1ccc(Oc2ccc3c(c2)c(C(=O)O)c(CC(=O)O)n3-c2ccc(C(C)C)cc2)cc1` came in with a melting point of 205 to 210 °C.

Molecule `CN(C)c1cccc(CN2CC=C(c3c[nH]c4ccc(Cl)cc34)CC2)c1` showed a melting point of 193 to 195 °C.

In turn, `CC=CC(=O)N1CCN(NC(=O)c2ccc(F)cc2)CC1` gave a melting point of 191 to 193 °C.

For the molecule `CN1CCN(c2cccc(-c3cnn4cc(C(=O)O)cnc34)c2)CC1`, the melting point lay in the range of 274 to 281 °C.

With `CC(C)(C)OC(=O)NC(=N)NC(=O)OCc1ccccc1`, the melting point was in the range of 125 to 126 °C.

As to `CCN(CC)C(=O)Nc1ccc2c(c1Cl)C(c1ccccc1F)=NCC(=O)N2C`, the melting point lay in the range of 190 to 191 °C.

`Cc1cccc(-n2c(-c3sc(Nc4ccccc4)nc3C)nc3ccccc3c2=O)c1` returned a melting point of 198 to 201 °C.

Take `CCOC(=O)c1ccc(N(C)Cc2ccc3nc(C)[nH]c(=O)c3c2)s1`: the melting point was greater than 200 °C.

The molecule `COc1ccc2cccc(C(=O)C(N)=O)c2c1` gave a melting point of 112 °C.

In turn, `CN(NC(=O)c1ccccc1C(=O)O)c1nc2ccccc2o1` showed a melting point of 140 to 142 °C.

`CCc1cn(C2CC(OC)C(CO)O2)c(=O)[nH]c1=O` (stereo unspecified) had a melting point of 118 to 127 °C.

On to `CCOc1ncc(I)cc1C(=O)OC`, for which the melting point was in the range of 67 to 69 °C.

As for `CCC(=O)N1CCC(NC(=O)Nc2c(Cl)cccc2Cl)CC1`, the melting point lay within 170 to 174 °C.

Molecule `CC1C(=O)C(c2ccc(S(C)(=O)=O)cc2)=C1c1ccccc1` (stereo unspecified) registered a melting point of 121 to 122 °C.

`Cc1nc(N2CCN(CCc3ccccc3)C2=O)sc1C(=O)NCc1ccccc1`: the melting point lay within 156 to 157 °C.

`CC1(C)OC(c2ccc(S(N)(=O)=O)c(Cl)c2)=C(c2ccccc2)C1=O` showed a melting point of 193 to 194 °C.

In turn, `COC(=O)C1=C(C)Nc2ccccc2NC1c1cccc([N+](=O)[O-])c1` (stereo unspecified) displayed a melting point of 124 to 126 °C.

Consider `COC(=O)C1CCc2sc3ccccc3c2C1=O` (stereo unspecified), for which the melting point is 158 to 160 °C.
